Measurements as given in patent US20240025919A1, “AZA-TETRACYCLIC OXAZEPINE COMPOUNDS AND USES THEREOF” (Genentech, Inc., priority 2022, published 2024).
Read-outs that look alike come from different tables or passages of the source.

How the values were obtained:
[1] = target: KRAS G12D (Homo sapiens (Human), UniProt P01116, G12D); test: KRAS G12D LoEnz Biochemical Assay, BODIPY-GDP Exchange TR-FRET (SOS1-mediated nucleotide exchange); settings: read-out: KRas (G12D) GDP HTRF IC50
Method: Example 500: KRAS G12D LoEnz Biochemical Assay, BODIPY-GDP Exchange TR-FRET. Biochemical compound potencies are assessed by evaluating inhibition of SOS1I-mediated nucleotide exchange in KRAS G121D. In this assay, the SOS1-promoted exchange of fluorescently-labeled GDP (BOPIDY-GDP) is monitored by time-resolved fluorescence resonance energy transfer (TR-FRET). Compounds solubilized in DMS0 are dispensed as concentration series into 384-well white assay plates. A preformed complex of biotin-tagged recombinant human KRAS (0.06 nM mutant G1 2D) and 0.06 nM terbium-labeled streptavidin (CisBIO) prepared in 10 uL/well assay buffer (20 mM HEPES, pH 7.5, 50 mM NaCl, 10 mMMMgCl2, 0.0100 Tween-20 and 1 mM dithiothreitol) is added and allowed to incubate for 10-minutes at room temperature. The reaction is initiated with the addition of 5 uL 300 nM recombinant human SOS1 and 300 nM BODIPY-GDP in assay buffer. After a 120-minute incubation, the fluorescence is measured with excitation at 337 nm and emission at 490 and 520 nm. The TR-FRET ratio is determined as the fluorescence at 520 nm divided by the fluorescence at 490 nm multiplied by 10,000. The results are normalized to percent inhibition based on control samples: DMSO (0% inhibition) and control compound at a concentration that inhibits completely (100% inhibition). The normalized TR-FRET results are plotted against compound concentration, and the data are fit to a 4-parameter Hill equation to determine the IC50 values.

[2] = target: KRAS WT (Homo sapiens (Human), UniProt P01116); test: KRAS WT Biochemical Assay, BODIPY-GDP Exchange TR-FRET (Example 501; 3 nM KRAS WT, 3 nM SOS1, 60-minute incubation)
Method: Example 501: KRAS WT Biochemical Assay, BODIPY-GDP Exchange TR-FRET. Biochemical compound potencies are assessed by evaluating inhibition of SOS1-mediated nucleotide exchange in KRAS WT. In this assay, the SOS1-promoted exchange of fluorescently-labeled GDP (BOPIDY-GDP) is monitored by time-resolved fluorescence resonance energy transfer (TR-FRET). Compounds solubilized in DMSO are dispensed as concentration series into 384-well white assay plates, and 5 uL assay buffer (20 mM HEPES, pH 7.5, 50 mM NaCl, 10 mM MgCl2, 0.01% Tween-20 and 1 mM dithiothreitol) is added just prior to the start of the assay. A preformed complex of 3 nM biotin-tagged recombinant human KRAS WT and 0.3 nM terbium-labeled streptavidin (CisBIO) prepared in 5 uL/well assay buffer is added and allowed to incubate for 10-minutes at room temperature. The reaction is initiated with the addition of 5 uL 3 nM recombinant human SOS1 and 300 nM BODIPY-GDP in assay buffer. After a 60-minute incubation, the fluorescence is measured with excitation at 337 nm and emission at 490 and 520 nm. The TR-FRET ratio is determined as the fluorescence at 520 nm divided by the fluorescence at 490 nm multiplied by 10,000. The results are normalized to percent inhibition based on control samples: DMSO (0% inhibition) and control compound at a concentration that inhibits completely (100% inhibition). The normalized TR-FRET results are plotted against compound concentration, and the data are fit to a 4-parameter Hill equation to determine the IC50 values.

[3] = read-out: KRas(wt) GDP HTRF IC50

KRAS G12D, sequence (P01116-2 other isoform, or with tags, fused parts or gaps G12D): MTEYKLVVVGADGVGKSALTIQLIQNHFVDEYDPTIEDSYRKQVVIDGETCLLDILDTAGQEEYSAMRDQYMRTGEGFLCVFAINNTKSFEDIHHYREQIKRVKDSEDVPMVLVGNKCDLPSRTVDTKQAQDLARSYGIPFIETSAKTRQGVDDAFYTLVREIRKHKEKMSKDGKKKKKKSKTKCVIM
KRAS WT, sequence (P01116-2 other isoform, or with tags, fused parts or gaps): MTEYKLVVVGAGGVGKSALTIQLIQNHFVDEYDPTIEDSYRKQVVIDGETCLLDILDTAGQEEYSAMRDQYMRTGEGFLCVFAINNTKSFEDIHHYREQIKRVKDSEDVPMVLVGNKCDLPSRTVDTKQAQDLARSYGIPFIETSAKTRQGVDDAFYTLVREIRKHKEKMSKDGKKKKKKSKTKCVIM

SMILES	IC50 [1]	IC50 ([2]; read-out: KRas HTRF IC50)	IC50 [2, 3]
Cc1c(F)c(N)c(F)c(-c2nc3c4c(nc(OCC5(CN6CCOCC6)CC5)nc4c2F)N2C[C@H]4CC[C@H](N4)[C@H]2[C@H](C)O3)c1C(F)(F)F [Compound 224, 2,6-Difluoro-3-((5S,5aS,6S,9R)-1-fluoro-5-methyl-12-((1-(morpholinomethyl)cyclopropyl)methoxy)-5a,6,7,8,9,10-hexahydro-5H-4-oxa-3,10a,11,13,14-pentaaza-6,9-methanonaphtho[1,8-ab]heptalen-2-yl)-5-methyl-4-(trifluoromethyl)aniline]	0.18 nM	12 nM	
Cc1c(F)c(N)c(F)c(-c2nc3c4c(nc(OC[C@@]56CCCN5CC5(CC5(F)F)C6)nc4c2F)N2C[C@H]4CC[C@H](N4)[C@H]2[C@H](C)O3)c1C(F)(F)F (stereo partly drawn) [Compound 225, 3-((5S,5aS,6S,9R)-12-(((7a′S)-2,2-Difluorodihydro-1′H,3′H-spiro[cyclopropane-1,2′-pyrrolizin]-7a′(5′H)-yl)methoxy)-1-fluoro-5-methyl-5a,6,7,8,9,10-hexahydro-5H-4-oxa-3,10a,11,13,14-pentaaza[6,9]methanonaphtho[1,8-ab]heptalene-2-yl)-2,6-difluoro-5-methyl-4-(trifluoromethyl)aniline]	0.25 nM	4.2 nM	
Cc1c(F)c(N)cc(-c2nc3c4c(nc(OCC56CCN5CC(F)(F)C6)nc4c2F)N2C[C@H]4CC[C@H](N4)[C@H]2[C@H](C(F)(F)F)O3)c1C(F)(F)F (mixture of isomers) [Compound 244, 5-((5R,5aS,6S,9R)-12-((3,3-Difluoro-1-azabicyclo[3.2.0]heptan-5-yl)methoxy)-1-fluoro-5-(trifluoromethyl)-5a,6,7,8,9,10-hexahydro-5H-4-oxa-3,10a,11,13,14-pentaaza-6,9-methanonaphtho[1,8-ab]heptalene-2-yl)-2-fluoro-3-methyl-4-(trifluoromethyl)aniline]	0.52 nM	11.9 nM	
Cc1c(F)c(N)cc(-c2nc3c4c(nc(OC[C@]56CCN5CC(F)(F)C6)nc4c2F)N2C[C@H]4CC[C@H](N4)[C@H]2[C@H](C)O3)c1C(F)(F)F [Compound 24, 5-((5S,5aS,6S,9R)-12-(((R)-3,3-difluoro-1-azabicyclo[3.2.0]heptan-5-yl)methoxy)-1-fluoro-5-methyl-5a,6,7,8,9,10-hexahydro-5H-4-oxa-3,10a,11,13,14-pentaaza-6,9-methanonaphtho[1,8-ab]heptalen-2-yl)-2-fluoro-3-methyl-4-(trifuoromethyl)aniline]	0.29 nM		3.28 nM
C[C@@H]1Oc2nc(-c3cncc4cccc(Cl)c34)c(F)c3nc(OC[C@@]45CCCN4C[C@H](F)C5)nc(c23)N2C[C@H]3CC[C@H](N3)[C@@H]12 [Compound 38, (5S,5aS,6S,9R)-2-(5-Chloroisoquinolin-4-yl)-1-fluoro-12-(((2R,7aS)-2-fluorotetrahydro-1H-pyrrolizin-7a(5H)-yl)methoxy)-5-methyl-5a,6,7,8,9,10-hexahydro-5H-4-oxa-3,10a,11,13,14-pentaaza-6,9-methanonaphtho[1,8-ab]heptalene]	13.9 nM		697 nM
Cc1c(F)c(N)cc(-c2nc3c4c(nc(OC[C@@]56CCCN5C[C@H](F)C6)nc4c2F)N2C[C@H]4CC[C@H](N4)[C@H]2C(CF)O3)c1C(F)(F)F (stereo partly drawn) [Compound 239, 2-Fluoro-5-((5aS,6S,9R)-1-fluoro-5-(fluoromethyl)-12-(((2R,7aS)-2-fluorotetrahydro-1H-pyrrolizin-7a(5H)-yl)methoxy)-5a,6,7,8,9,10-hexahydro-5H-4-oxa-3,10a,11,13,14-pentaaza-6,9-methanonaphtho[1,8-ab]heptalen-2-yl)-3-methyl-4-(trifluoromethyl)aniline]	0.58 nM	0.94 nM	
Cc1nc(N)cc(-c2nc3c4c(nc(OCC56C[C@@H](F)CN5C[C@H](F)C6)nc4c2F)N2C[C@H]4CC[C@H](N4)[C@H]2[C@H](C(F)(F)F)O3)c1C(F)(F)F [Compound 261, 4-((5R,5aS,6S,9R)-12-(((2R,6R)-2,6-Difluorotetrahydro-1H-pyrrolizin-7a(5H)-yl)methoxy)-1-fluoro-5-(trifluoromethyl)-5a,6,7,8,9,10-hexahydro-5H-4-oxa-3,10a,11,13,14-pentaaza-6,9-methanonaphtho[1,8-ab]heptalen-2-yl)-6-methyl-5-(trifluoromethyl)pyridin-2-amine]	2.76 nM	97.1 nM	
Cc1c(F)c(N)cc(-c2nc3c4c(nc(OC[C@@]56CCCN5C[C@H](F)C6)nc4c2F)N2CCNC[C@H]2[C@H](C)O3)c1C(F)(F)F (single isomer, unassigned) [235 (isomer 1)]	65.8 nM	143 nM	
C[C@@H]1Oc2nc(-c3cc(N)c(=O)n(C)c3C(F)(F)F)c(F)c3nc(OC[C@@]45CCCN4C[C@H](F)C5)nc(c23)N2C[C@H]3CC[C@H](N3)[C@@H]12 [Compound 184, 3-Amino-5-((5S,5aS,6S,9R)-1-fluoro-12-(((2R,7aS)-2-fluorotetrahydro-1H-pyrrolizin-7a(5H)-yl)methoxy)-5-methyl-5a,6,7,8,9,10-hexahydro-5H-4-oxa-3,10a,11,13,14-pentaaza-6,9-methanonaphtho[1,8-ab]heptalene-2-yl)-1-methyl-6-(trifluoromethyl)pyridin-2(1H)-one]	1.98 nM	393 nM	
Cc1nc(N)cc(-c2nc3c4c(nc(OCC5(CN6CCO[C@H](C)C6)CC5)nc4c2F)N2C[C@H]4CC[C@H](N4)[C@H]2[C@H](C)O3)c1C(F)(F)F [Compound 213, 4-((5S,5aS,6S,9R)-1-Fluoro-5-methyl-12-((1-(((R)-2-methylmorpholino)methyl)cyclopropyl)methoxy)-5a,6,7,8,9,10-hexahydro-5H-4-oxa-3,10a,11,13,14-pentaaza-6,9-methanonaphtho[1,8-ab]heptalen-2-yl)-6-methyl-5-(trifluoromethyl)pyridin-2-amine]	0.31 nM	13.6 nM	
Oc1cc(-c2nc3c4c(nc(OC[C@@]56CCCN5C[C@H](F)C6)nc4c2F)N2C[C@H]4CC[C@H](N4)[C@H]2CO3)c2c(F)cccc2c1 [Compound 1, 5-Fluoro-4-((5aS,6S,9R)-1-fluoro-12-(((2R,7aS)-2-fluorotetrahydro-1H-pyrrolizin-7a(5H)-yl)methoxy)-5a,6,7,8,9,10-hexahydro-5H-4-oxa-3,10a,11,13,14-pentaaza-6,9-methanonaphtho[1,8-ab]heptalen-2-yl)naphthalen-2-ol]	0.12 nM		8.12 nM
Cc1nc(N)c(F)c(-c2nc3c4c(nc(OC[C@@]56CCCN5CC5(CC5(F)F)C6)nc4c2F)N2C[C@H]4CC[C@H](N4)[C@H]2[C@H](C(F)(F)F)O3)c1C(F)(F)F (stereo partly drawn) [Compound 257, 4-((5R,5aS,6S,9R)-12-(((7a'S)-2,2-Difluorodihydro-1′H,3′H-spiro[cyclopropane-1,2′-pyrrolizin]-7a′(5′H)-yl)methoxy)-1-fluoro-5-(trifluoromethyl)-5a,6,7,8,9,10-hexahydro-5H-4-oxa-3,10a,11,13,14-pentaaza[6,9]methanonaphtho[1,8-ab]heptalen-2-yl)-3-fluoro-6-methyl-5-(trifluoromethyl)pyridin-2-amine]	0.89 nM	8.41 nM	
Cc1nc(N)cc(-c2nc3c4c(nc(OC[C@@]56CCCN5CC5(CC5(F)F)C6)nc4c2F)N2C[C@H]4CC[C@H](N4)[C@H]2[C@H](C(F)(F)F)O3)c1C(F)(F)F (stereo partly drawn) [Compound 254, 4-((5R,5aS,6S,9R)-12-(((7a′S)-2,2-Difluorodihydro-1′H,3′H-spiro[cyclopropane-1,2′-pyrrolizin]-7a′(5′H)-yl)methoxy)-1-fluoro-5-(trifluoromethyl)-5a,6,7,8,9,10-hexahydro-5H-4-oxa-3,10a,11,13,14-pentaaza[6,9]methanonaphtho[1,8-ab]heptalene-2-yl)-6-methyl-5-(trifluoromethyl)pyridin-2-amine]	0.49 nM	1.25 nM	
